These results are taken from patent US20150374623A1, “DEAMORPHIZATION OF SPRAY-DRIED FORMULATIONS VIA SPRAY-BLENDING” (NOVARTIS AG, priority 2013, published 2015).

The nature of data set [1]: Solubility of indacaterol maleate in water and in maleate buffer. It is filed as physicochemical. As for the experimental part: In Lot II, the concentration of indacaterol in Feedline A was 18% w/w and the concentration in the spray-blended bulk powder was just 4.1% w/w, as the remaining spray dried particles from Feedlines B and C contained no API.
Lot IV is formulated like Lot II except 20 mM sodium maleate (pH 5.5) was added to Feedline A. Sodium maleate was added to decrease the indacaterol solubility in water to about, 0.01 mg/ml (common ion effect). In this case, spray-blending reduced the dissolved indacaterol in the feedstock from about, 8.0% to 0.1%.
Estimated % Dissolved was calculated based on the feedstock compositions according to equation 1. The solubility of indacaterol in water is 0.2 mg/ml, and 0.01 mg/ml in 20 mM maleate buffer. The decreased solubility in maleate buffer is the result of the shift in the equilibrium towards precipitation of indacaterol maleate which occurs as a result of the addition of a common ion. The impact of spray-blending on the dissolved fraction is clearly evident by comparing Lots I and VI. In the spray-blended Lot I, the total drug loading is 1.4%, yet the dissolved fraction is just 4.9%. In contrast, for the single feedstock Lot VI, the drug content is actually higher (2%), yet the dissolved fraction is nearly 15%.

The target of another data set is β2-adrenoceptor (Homo sapiens, UniProt P07550). The following applies: cited from earlier work.
β2-adrenoceptor, sequence (P07550 whole entry, species assumed): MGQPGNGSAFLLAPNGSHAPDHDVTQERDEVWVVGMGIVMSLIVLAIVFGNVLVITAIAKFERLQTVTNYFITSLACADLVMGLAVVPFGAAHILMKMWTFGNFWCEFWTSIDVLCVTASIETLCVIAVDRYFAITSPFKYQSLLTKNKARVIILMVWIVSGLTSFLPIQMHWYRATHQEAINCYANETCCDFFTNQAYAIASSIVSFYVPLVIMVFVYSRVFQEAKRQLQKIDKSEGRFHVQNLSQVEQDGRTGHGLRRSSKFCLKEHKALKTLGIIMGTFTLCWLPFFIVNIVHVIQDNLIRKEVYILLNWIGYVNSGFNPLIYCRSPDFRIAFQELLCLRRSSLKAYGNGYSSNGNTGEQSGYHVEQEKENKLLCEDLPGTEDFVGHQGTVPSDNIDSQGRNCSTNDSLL

Converted amounts (≈) assume the structure as drawn. Structures can show the parent of a compound that is named as a salt. Where two headings read alike, the source gives them in different places.

For orientation: solubility means the concentration that dissolves in the medium under given conditions. As to `CCc1cc2c(cc1CC)CC(NC[C@H](O)c1ccc(O)c3[nH]c(=O)ccc13)C2` [indacaterol maleate, (R)-5-[2-(5,6-diethyl-indan-2-ylamino)-1-hydroxyethyl]-8-hydroxy-1H-quinolin-2-one], the solubility in data set [1] (water, read-out: solubility in water) was found to be 200 µg/mL.
`CCc1cc2c(cc1CC)CC(NC[C@H](O)c1ccc(O)c3[nH]c(=O)ccc13)C2` [indacaterol, (R)-5-[2-(5,6-diethyl-indan-2-ylamino)-1-hydroxyethyl]-8-hydroxy-1H-quinolin-2-one]: the “solubility in 20 mM maleate buffer” value in data set [1] (20 mM sodium maleate (pH 5.5), common ion effect) is 10 µg/mL (≈ 25.5 µM). The solubility in data set [1] (20 mM sodium maleate buffer, pH 5.5, aqueous buffer, 20 mM sodium maleate (pH 5.5), common ion effect, read-out: solubility in 20 mM maleate buffer) is approximately 10 µg/mL (≈ 25.5 µM). At β2-adrenoceptor, the duration of action result is recorded as “over 24 hours” and the onset of action entry is “about 10 minutes”.
